“Also recorded” adds a separate entry of the source.
Columns and labels:
[1] = system: P. aeruginosa strain PAKNP; experiment: Epifluorescence microscopy of cells bound to stainless steel, strain PAKNP; assay type: cell-based, Pseudomonas aeruginosa; conditions: 60 min 37° C.
Description: (§1) FIG. 2. Epifluorescence microscopy of stainless steel after binding of P. aeruginosa strains PAK (panels a, b, and c), PAO (panels d, e, and f), K122-4 (panels g, h, and i), KB7 (panels j, k, and l), PAKNP (panels m, n, and o) and PAKMS591 (panels p, q, and r). Viable cells were allowed to incubate directly (panels a, d, g, j, m, and p) with a stainless steel grade 304 surface for 60 min at 37° C. and washed 5 times with 10 mM PBS pH 7.4 containing 0.05% BSA. The cells were then stained using acrydine orange and a 40× objective field was photographed with a Leitz Laborlux microscope equipped with epifluorescent illumination and a Wild automatic exposure 35 mm camera system. Note that bound Pseudomonas cells are stained orange while green fluorescence indicates non-specific interaction of the fluorochrome with the surface. P. aeruginosa strains PAK, PAO, K122-4, KB7, PAKNP, and PAKMS591 were incubated with the synthetic peptide PAK(128-144d)ox (panels b, e, h, k, n, and q respectively) or with synthetic peptide PAK(134-140) (panels c, f, i, l, o, and r respectively).
(§2) Stainless steel plates, prepared and utilized in bacterial binding studies as described above, were incubated in 1 mM Acridine Orange stain for one minute, and thoroughly rinsed with distilled water. […] Micrographs were recorded with Kodak Colormax 35 mm film, processed and digitally scanned immediately after film processing.

P. aeruginosa strain PAK = experiment: Epifluorescence microscopy of cells bound to stainless steel, strain PAK; assay type: cell-based, Pseudomonas aeruginosa; conditions: PAK(128-144)ox 51 nM; PAK(134-140) 100 μg/ml; 60 min 37° C.
Description: as §1, §2

[2] = system: P. aeruginosa strain PAKMS591; experiment: Epifluorescence microscopy of cells bound to stainless steel, strain PAKMS591; assay type: cell-based, Pseudomonas aeruginosa; conditions: 60 min 37° C.
Description: as §1, §2

[3] = system: respiratory epithelial cells; conditions: Yu et al., 1996; cited from earlier work
P. aeruginosa strain PAO = experiment: Epifluorescence microscopy of cells bound to stainless steel, strain PAO; assay type: cell-based, Pseudomonas aeruginosa; conditions: PAK(128-144)ox 51 nM; PAK(134-140) 100 μg/ml; 60 min 37° C.
Description: as §1, §2

P. aeruginosa strain KB7 = experiment: Epifluorescence microscopy of cells bound to stainless steel, strain KB7; assay type: cell-based, Pseudomonas aeruginosa; conditions: PAK(128-144)ox 51 nM; PAK(134-140) 100 μg/ml; 60 min 37° C.
Description: as §1, §2

[4] = system: biotinylated viable PAKwt cells; assay type: cell-based, Pseudomonas aeruginosa
[5] = system: P. aeruginosa strain K122-4; experiment: Epifluorescence microscopy of cells bound to stainless steel, strain K122-4; assay type: cell-based, Pseudomonas aeruginosa; conditions: PAK(128-144)ox 51 nM; PAK(134-140) 100 μg/ml; 60 min 37° C.
Description: as §1, §2

[6] = target: biotinylated purified PAK pili
biotinylated purified PAK pili, sequence (P02973 7-150): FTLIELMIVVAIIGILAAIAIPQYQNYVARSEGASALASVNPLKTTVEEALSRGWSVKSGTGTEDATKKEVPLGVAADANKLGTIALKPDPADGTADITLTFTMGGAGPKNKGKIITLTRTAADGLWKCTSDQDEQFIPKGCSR

| Substance | effect on binding of strain PAKNP (pilA-) to stainless steel (microscopy) [1] | effect on binding of strain PAK to stainless steel (microscopy) (P. aeruginosa strain PAK) | effect on binding of strain PAKMS591 (fliC-) to stainless steel (microscopy) [2] | affinity for epithelial cells / mucosal cell surface receptors [3] | effect on binding of strain PAO to stainless steel (microscopy) (P. aeruginosa strain PAO) | effect on binding of strain KB7 to stainless steel (microscopy) (P. aeruginosa strain KB7) | effect of peptide on binding of biotinylated PAKwt cells to stainless steel [4] | effect on binding of strain K122-4 to stainless steel (microscopy) [5] | Ki ([4]; read-out: apparent Ki of the peptide inhibition of PAKwt binding to steel) [nM] | Ki ([6]; read-out: apparent Ki of the peptide inhibition of PAK pilus binding to steel) [nM] | effect of peptide on binding of biotinylated PAK pili to stainless steel [6] |
| --- | --- | --- | --- | --- | --- | --- | --- | --- | --- | --- | --- |
| Ac-D-E-Q-F-I-P-K-amide (Ac-DEQFIPK-NH2) [PAK(134-140)] | did not inhibit the binding | did not inhibit the binding; also recorded: minimal effect | did not inhibit the binding | low affinity | did not inhibit the binding; also recorded: minimal effect | did not inhibit the binding; also recorded: nor did it inhibit the binding; also recorded: minimal effect | do not inhibit cell binding; also recorded: did not inhibit | did not inhibit the binding; also recorded: nor did it inhibit the binding; also recorded: minimal effect | – | – | – |
| Ac-KCTSDQDEQFIPKGCSK-OH (cysteine pairing not given here) [PAK(128-144)ox] | did not reduce the binding; also recorded: had no effect | reduced the binding | reduced the binding; also recorded: inhibited the binding | – | reduced the binding; also recorded: substantially inhibits; also recorded: effectively inhibits the adherence | reduced the binding; also recorded: substantially inhibits; also recorded: effectively inhibits the adherence | – | reduced the binding; also recorded: substantially inhibits; also recorded: effectively inhibits the adherence | ~4 | ~0.2 | – |
| Ac-PQYQNYVARSEGASALASVNPLKTTVEEADP-OH [PAK(22-52)] | – | – | – | – | – | – | do not inhibit cell binding | – | – | – | do not inhibit the binding of pili |
| Ac-T-L-T-R-T-A-A-D-G-OH (Ac-TLTRTAADG-OH) [PAK(117-125)] | – | – | – | – | – | – | appears to enhance cell binding to steel rather than inhibiting | – | – | – | appears to enhance the binding of pili to steel rather than inhibiting |
